The results in this text go back to patent US7973069B2 (PTC Therapeutics, Inc., priority 2004, dated 2011).

For orientation: IC50 means the point on the concentration scale where inhibition reaches its midpoint.

The structures appear in SMILES notation. Values joined by “and” are separate entries in the source; they are usually repeats but may differ in a detail not shown here. Equal entries are not always repeated.

For the experiment, the system named is HCV replicon. In kind it is cell-based.
Turning to `CCn1c(-c2ccc(N3CCCS3(=O)=O)cc2)c(C#N)c2ccc(Oc3cnccn3)cc21` [Compound 1053], the IC50 fell in the range of 0.5 to 2 µM. Turning to `CCS(=O)(=O)Nc1ccc(-c2c(C#N)c3cc(OC)ccc3n2C2CCC2)cc1` [Compound 1161], the IC50 is < 0.5 µM and 0.5 to 2 µM. `CCOc1ccc2c(C#N)c(-c3ccc(NC(=O)NC4CCCC4)cc3)n(C3CCC3)c2c1` [Compound 1027] gave an IC50 of less than 0.5 µM. In turn, `C=CCNC(=O)Nc1ccc(-c2c(C#N)c3ccc(OCCCN4CCOCC4)cc3n2CC)cc1` [Compound 1125] yielded a concentration for half-maximal inhibition (IC50) of less than 0.5 µM. As to `CC(C)OC(=O)Nc1ccc(-c2c(C#N)c3ccc(OCCN(C)C)cc3n2C2CCC2)cc1` [Compound 1269], the half-inhibitory concentration (IC50) was less than 0.5 µM. Regarding `CCCOC(=O)N(CC)c1ccc(-c2c(C#N)c3ccc(OCC)cc3n2C2CCC2)cc1` [Compound 1252], the half-inhibitory concentration (IC50) lay within 0.5 to 2 µM.

For the compound `CCn1c(-c2ccc(NC(=O)C3CC3)cc2)c(C#N)c2ccc(OCCn3cncn3)cc21` [Compound 1093], the IC50 is 0.5 to 2 µM. Compound `CCOc1ccc2c(C#N)c(-c3ccc(NC(=O)OC(C)C)cc3)n(C3CC3)c2c1` [Compound 1236] yielded an IC50 of less than 0.5 µM.

Compound `CC(C)n1c(-c2ccc(NC(=O)O[C@H](C)C3CC3)cc2)c(C#N)c2ccc(Oc3ncccn3)cc21` [Compound 2208] came in with a concentration for half-maximal inhibition (IC50) of less than 0.5 µM. As for `CCOc1ccc2c(C#N)c(-c3ccc(NC(=O)NC(C)C)cc3)n(C3CCCC3)c2c1` [Compound 1221], the figure is less than 0.5 µM; as for `CCOc1ccc2c(C#N)c(-c3ccc(NS(=O)(=O)C4CC4)cc3)n(C3CCC3)c2c1` [Compound 934], less than 0.5 µM. In turn, `CCn1c(-c2ccc(NC(=O)OCCCl)cc2)c(C#N)c2ccc(OCCCN3CCOCC3)cc21` [Compound 1116] returned an IC50 of 0.5 to 2 µM. As for `CCOc1ccc2c(C#N)c(-c3ccc(NC(=O)Oc4ccc(OC)cc4)cc3)n(C3CCC3)c2c1` [Compound 978], the figure is 0.5 to 2 µM; as for `CC(C)OC(=O)Nc1ccc(-c2c(C#N)c3ccc(OCC4CCCO4)cc3n2C2CCC2)cc1` (stereo not drawn) [Compound 1285], less than 0.5 µM. `CCn1c(-c2ccc(NC(=O)OC(C)C)c(F)c2)c(C#N)c2ccc(OC)cc21` [Compound 878]: the IC50 was 0.5 to 2 µM.

In the case of `CCS(=O)(=O)Nc1ccc(-c2c(C#N)c3ccc(OC)cc3n2COC)cc1` [Compound 988], the half-inhibitory concentration (IC50) was in the range of 0.5 to 2 µM. In the case of `CCOc1ccc2c(C#N)c(-c3ccc(NC(C)=O)cc3)n(CC)c2c1` [Compound 895], the concentration for half-maximal inhibition (IC50) lay within 0.5 to 2 µM. As for `N#Cc1c(-c2ccc(NC(=O)NC3CCCC3)cc2)n(C2CCC2)c2cc3c(cc12)OCO3` [Compound 1305], the figure is less than 0.5 µM; as for `N#Cc1c(-c2ccc(NS(=O)(=O)C3CC3)cc2)n(C2CCCC2)c2cc(OC(F)F)ccc12` [Compound 1189], less than 0.5 µM; as for `CCCOC(=O)Nc1ccc(-c2c(C#N)c3ccc(OC)cc3n2C2CCC2)cc1` [Compound 1074], 0.5 to 2 µM. As for `CC(C)S(=O)(=O)Nc1ccc(-c2c(C#N)c3ccc(OC(F)F)cc3n2CC2CC2)cc1` [Compound 941], the figure is less than 0.5 µM; as for `CCOc1ccc2c(C#N)c(-c3ccc(NP(=O)(OC)OC)cc3)n(CC)c2c1` [Compound 942], 0.5 to 2 µM; as for `CCOc1ccc2c(C#N)c(-c3cccc(N4CCCS4(=O)=O)c3)n(CC)c2c1` [Compound 907], 0.5 to 2 µM.

Compound `CCOc1ccc2c(C#N)c(-c3ccc(NC(=O)CCc4ccccc4)cc3)n(CC)c2c1` [Compound 901] displayed an IC50 of 0.5 to 2 µM. In turn, `CCCn1c(-c2ccc(N3CCCS3(=O)=O)cc2)c(C#N)c2ccc(OC(F)(F)F)cc21` [Compound 904] came in with an IC50 of 0.5 to 2 µM. In turn, `CCn1c(-c2ccc(NC(=O)NC(C)C)cc2)c(C#N)c2ccc(OC(F)F)cc21` [Compound 1137] displayed a half-inhibitory concentration (IC50) of 0.5 to 2 µM. As for `COCCN(C)CCOc1ccc2c(C#N)c(-c3ccc(NC(=O)OC(C)C)cc3)n(C3CCC3)c2c1` [Compound 1274], the figure is less than 0.5 µM. `CCCOC(=O)Nc1ccc(-c2c(C#N)c3ccc(OCC)cc3n2CC2CC2)cc1` [Compound 1149] came in with an IC50 of less than 0.5 µM.

In the case of `CC(C)OC(=O)Nc1ccc(-c2c(C#N)c3ccc(OCc4cccnc4)cc3n2C2CCC2)cc1` [Compound 1218], the 50% inhibitory concentration (IC50) is less than 0.5 µM. As for `CCOCCOC(=O)Nc1ccc(-c2c(C#N)c3ccc(OCC)cc3n2C2CCC2)cc1` [Compound 1250], the figure is less than 0.5 µM; as for `CCOc1ccc2c(C#N)c(-c3ccc(NC(=O)NC4CCC4)cc3)n(C3CCC3)c2c1` [Compound 1168], less than 0.5 µM.

Consider `CCOc1ccc2c(C#N)c(-c3ccc(NC(=O)OC)cc3)n(C3CCC3)c2c1` [Compound 970], for which the half-maximal inhibitory concentration (IC50) was less than 0.5 µM. As for `CCCOc1ccc2c(C#N)c(-c3ccc(NC(=O)NC4CCC4)cc3)n(C(C)C)c2c1` [Compound 1326], the figure is 0.5 to 2 µM. On to `CCn1c(-c2ccc(N3CC(=O)NC3=O)cc2)c(C#N)c2ccc(OC)cc21` [Compound 994], for which the IC50 was in the range of 0.5 to 2 µM.

As for `CCOc1ccc2c(C#N)c(-c3ccc(NC(=O)O[C@H](C)C4CC4)cc3)n(C3CCC3)c2c1` [Compound 2174], the concentration for half-maximal inhibition (IC50) is less than 0.5 µM. As for `CCCn1c(-c2cccc(N)c2)c(C#N)c2cc(OCc3ccccc3)ccc21` [Compound 866], the figure is 0.5 to 2 µM; as for `N#Cc1c(-c2ccc(N3CCCS3(=O)=O)cc2)n(CCF)c2cc(OC(F)(F)F)ccc12` [Compound 905], less than 0.5 µM; as for `C[C@@H](OC(=O)Nc1ccc(-c2c(C#N)c3ccc(OCCF)cc3n2C2CCC2)cc1)C1CC1` [Compound 2326], less than 0.5 µM.

Take `CCCOc1ccc2c(C#N)c(-c3ccc(NC(=O)OC(C)C4CC4)cc3)n(C(C)C)c2c1` (stereo not drawn) [Compound 1244]: the half-inhibitory concentration (IC50) was less than 0.5 µM. `CCCCNC(=O)Nc1ccc(-c2c(C#N)c3ccc(OCC)cc3n2CCC)cc1` [Compound 1097] showed a concentration for half-maximal inhibition (IC50) of less than 0.5 µM. As for `CCn1c(-c2ccc(N3CCNC3=O)cc2)c(C#N)c2ccc(OCCCCl)cc21` [Compound 1051], the figure is 0.5 to 2 µM; as for `Cn1c(-c2ccc(N3CCCS3(=O)=O)cc2)c(C#N)c2ccc(OC(F)(F)F)cc21` [Compound 902], 0.5 to 2 µM. Take `CCn1c(-c2ccc(NS(=O)(=O)CC)c(C)c2)c(C#N)c2ccc(OC)cc21` [Compound 960]: the half-maximal inhibitory concentration (IC50) fell in the range of 0.5 to 2 µM.

`CCn1c(-c2ccc(NC(=O)C(C)(C)C)cc2)c(C#N)c2ccc(OC(F)(F)F)cc21` [Compound 915] displayed an IC50 of 0.5 to 2 µM. On to `CC(C)COC(=O)Nc1ccc(-c2c(C#N)c3ccc(OC(F)F)cc3n2CC2CC2)cc1` [Compound 1071], for which the IC50 is 0.5 to 2 µM and > 2 µM. As for `CCCCNC(=O)Nc1ccc(-c2c(C#N)c3ccc(OC(F)F)cc3n2CC)cc1` [Compound 1138], the figure is 0.5 to 2 µM; as for `CCCCNC(=O)Nc1ccc(-c2c(C#N)c3ccc(OCC)cc3n2CCCC)cc1` [Compound 1018], less than 0.5 µM. Regarding `CCOc1ccc2c(c1)c(C#N)c(-c1ccc(NC(=O)OC(C)C3CC3)cc1)n2C1CCC1` (stereo not drawn) [Compound 1295], the IC50 is less than 0.5 µM.

On to `CCOc1ccc2c(c1)c(C#N)c(-c1ccc(NC(=O)OCC3(C)CC3)cc1)n2C1CCC1` [Compound 1294], for which the IC50 is less than 0.5 µM. As for `CCOc1ccc2c(c1)c(C#N)c(-c1ccc(NC(=O)OC3CCC3)cc1)n2C1CCC1` [Compound 1292], the figure is less than 0.5 µM; as for `CCCCNC(=O)Nc1cccc(-c2c(C#N)c3ccc(OCCCN4CCOCC4)cc3n2CC)c1` [Compound 1067], 0.5 to 2 µM.
